Results on 16 compounds are retold here after US12084472B2 (Ardelyx, Inc., priority 2015, dated 2024).

This assay addresses T1, human TGR5 (Homo sapiens, UniProt Q8TDU6).
T1 construct: expressed in transfected cells; host or cells: HEK293
T1 sequence (Q8TDU6 1-330): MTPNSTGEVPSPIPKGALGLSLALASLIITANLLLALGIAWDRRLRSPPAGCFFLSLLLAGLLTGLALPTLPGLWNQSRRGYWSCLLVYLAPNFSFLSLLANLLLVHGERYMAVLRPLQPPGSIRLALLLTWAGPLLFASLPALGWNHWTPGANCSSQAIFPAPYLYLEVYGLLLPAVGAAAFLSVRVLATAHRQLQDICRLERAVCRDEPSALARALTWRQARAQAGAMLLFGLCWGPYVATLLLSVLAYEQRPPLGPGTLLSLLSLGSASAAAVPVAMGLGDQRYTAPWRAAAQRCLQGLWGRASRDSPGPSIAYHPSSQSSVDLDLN
The experiment in a line: Cell-based TGR5 assay (cAMP generation, HTRF). To be noted: HEK293 cells stably transfected with human TGR5; cAMP by HTRF; 30 minutes at 37° C.; read-out: pEC50 Human TGR5 (converted). The procedure, abridged: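 First, compounds in 3-fold serial dilution were placed in HBSS with 10 mM HEPES pH 7.4 and 0.5 mM IBMX. Next, human TGR5-expressing HEK293 cells were added and incubated 30 min at 37° C. Finally, cAMP was detected by HTRF and pEC50 derived by logistic fitting.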
On to `CCN(C[C@H](O)[C@@H](O)[C@H](O)[C@H](O)CO)C(=O)CCCCc1cc(Cl)c(COC2(c3cnccc3-c3ccccc3OC3CC3)CC2)cc1Cl` [Compound I-108, 5-[2,5-dichloro-4-({1-[4-(2-cyclopropoxyphenyl)pyridin-3-yl]cyclopropoxy}methyl)phenyl]-N-ethyl-N-[(2S,3R,4R,5R)-2,3,4,5,6-pentahydroxyhexyl]pentanamide], for which the EC50 is less than 100 nM. The figure for `O=C(NC[C@H](O)[C@@H](O)[C@H](O)[C@H](O)CO)C1CCC(NS(=O)(=O)c2ccc(Cl)c(COC3(c4cnccc4-c4ccccc4OC4CC4)CC3)c2)C1` (stereo partly drawn) [Compound I-439, 3-[4-chloro-3-({1-[4-(2-cyclopropoxyphenyl)pyridin-3-yl]cyclopropoxy}methyl)benzenesulfonamido]-N-[(2S,3R,4R,5R)-2,3,4,5,6-pentahydroxyhexyl]cyclopentane-1-carboxamide] is less than 100 nM. The figure for `O=C(NCCCCCSc1ccc(Cl)c(COC2(c3cnccc3-c3ccccc3OC3CC3)CC2)c1)N[C@H]1CC[C@H](NC(=O)NC[C@H](O)[C@@H](O)[C@H](O)[C@H](O)CO)CC1` [Compound I-630, 1-(5-{[4-chloro-3-({1-[4-(2-cyclopropoxyphenyl)pyridin-3-yl]cyclopropoxy}methyl)phenyl]sulfanyl}pentyl)-3-[(1r,4r)-4-({[(2S,3R,4R,5R)-2,3,4,5,6-pentahydroxyhexyl]carbamoyl}amino)cyclohexyl]urea] is less than 100 nM; for `Cc1ccc(SCCCCN(CCOCCO)C(=O)[C@@H](O)[C@@H](O)[C@H](O)[C@@H](O)CO)cc1COC1(c2cnccc2-c2ccccc2OC2CC2)CC1` [Compound I-551, (2S,3S,4R,5S)-N-(4-{[3-({1-[4-(2-cyclopropoxyphenyl)pyridin-3-yl]cyclopropoxy}methyl)-4-methylphenyl]sulfanyl}butyl)-2,3,4,5,6-pentahydroxy-N-[2-(2-hydroxyethoxy)ethyl]hexanamide] it is 126 to 1000 nM; for `O=C(NCCCCNS(=O)(=O)c1ccc(Cl)c(COC2(c3cnccc3-c3ccccc3OC3CC3)CC2)c1)N[C@@H](CO)[C@@H](O)[C@H](O)[C@H](O)CO` (stereo in doubt) [Compound I-410, 1-{4-[4-chloro-3-({1-[4-(2-cyclopropoxyphenyl)pyridin-3-yl]cyclopropoxy}methyl)benzenesulfonamido]butyl}-3-[(2S,3R,4S,5R)-1,3,4,5,6-pentahydroxyhexan-2-yl]urea] it is less than 100 nM. The result for `O=C(NC[C@H](O)[C@@H](O)[C@H](O)[C@H](O)CO)NC1CC2(CCN(S(=O)(=O)c3ccc(Cl)c(COC4(c5cnccc5-c5ccccc5OC5CC5)CC4)c3)CC2)C1` [Compound I-428, 1-{7-[4-chloro-3-({1-[4-(2-cyclopropoxyphenyl)pyridin-3-yl]cyclopropoxy}methyl)benzenesulfonyl]-7-azaspiro[3.5]nonan-2-yl}-3-[(2S,3R,4R,5R)-2,3,4,5,6-pentahydroxyhexyl]urea] reads 126 to 1000 nM. For `CNC(=O)CN(C[C@H](O)[C@@H](O)[C@H](O)[C@H](O)CO)C(=O)CCCCc1cc(Cl)c(COC2(c3cnccc3-c3ccccc3OC3CC3)CC2)cc1Cl` (stereo in doubt) [Compound I-219, 5-[2,5-dichloro-4-({1-[4-(2-cyclopropoxyphenyl)pyridin-3-yl]cyclopropoxy}methyl)phenyl]-N-[(methylcarbamoyl)methyl]-N-[(2S,3R,4R,5R)-2,3,4,5,6-pentahydroxyhexyl]pentanamide], the EC50 is less than 100 nM. The figure for `O=S(=O)(c1ccc(Cl)c(COC2(c3cnccc3-c3ccccc3OC3CC3)CC2)c1)N1CCCC1` [Compound I-395, 3-(1-{[2-chloro-5-(pyrrolidine-1-sulfonyl)phenyl]methoxy}cyclopropyl)-4-(2-cyclopropoxyphenyl)pyridine] is less than 100 nM; for `O=C(NC[C@H](O)[C@@H](O)[C@H](O)[C@H](O)CO)NC1CCN(C(=O)CCCCc2cc(Cl)c(COC3(c4cnccc4-c4ccccc4OC4CC4)CC3)cc2Cl)CC1` (stereo in doubt) [Compound I-158, 1-(1-{5-[2,5-dichloro-4-({1-[4-(2-cyclopropoxyphenyl)pyridin-3-yl]cyclopropoxy}methyl)phenyl]pentanoyl}piperidin-4-yl)-3-[(2S,3R,4R,5R)-2,3,4,5,6-pentahydroxyhexyl]urea] it is less than 100 nM; for `O=C(NCCCCSc1ccc(Cl)c(COC2(c3cnccc3-c3ccccc3OC3CC3)CC2)c1)N[C@@H](CO)[C@@H](O)[C@H](O)[C@H](O)CO` [Compound I-628, 1-(4-{[4-chloro-3-({1-[4-(2-cyclopropoxyphenyl)pyridin-3-yl]cyclopropoxy}methyl)phenyl]sulfanyl}butyl)-3-[(2S,3R,4S,5R)-1,3,4,5,6-pentahydroxyhexan-2-yl]urea] it is less than 100 nM. The result for `Cn1c(C(=O)NC[C@H](O)[C@@H](O)[C@H](O)[C@H](O)CO)cnc1SCc1ccc(Cl)c(COC2(c3cnccc3-c3ccccc3OC3CC3)CC2)c1` [Compound I-758, 2-((4-chloro-3-((1-(4-(2-cyclopropoxyphenyl)pyridin-3-yl)cyclopropoxy)methyl)benzyl)thio)-1-methyl-N-((2S,3R,4R,5R)-2,3,4,5,6-pentahydroxyhexyl)-1H-imidazole-5-carboxamide] reads 126 to 1000 nM. The figure for `CC(CCCC(=O)NC[C@H](O)[C@@H](O)[C@H](O)[C@H](O)CO)c1cc(Cl)c(COC2(c3cnccc3-c3ccccc3OC3CC3)CC2)cc1Cl` (stereo partly drawn) [Compound I-161, 5-[2,5-dichloro-4-({1-[4-(2-cyclopropoxyphenyl)pyridin-3-yl]cyclopropoxy}methyl)phenyl]-N-[(2S,3R,4R,5R)-2,3,4,5,6-pentahydroxyhexyl]hexanamide] is less than 100 nM; for `Cc1ccc(C(CO)CCCNC(=O)NC[C@H](O)[C@@H](O)[C@H](O)[C@H](O)CO)cc1CNC1(c2cnccc2-c2ccccc2OC2CC2)CC1` (stereo partly drawn) [Compound I-387, 1-(4-{3-[({1-[4-(2-cyclopropoxyphenyl)pyridin-3-yl]cyclopropyl}amino)methyl]-4-methylphenyl}-5-hydroxypentyl)-3-[(2S,3R,4R,5R)-2,3,4,5,6-pentahydroxyhexyl]urea] it is 126 to 1000 nM; for `CC(CCCC(=O)N1CCC(NC(=O)NC[C@H](O)[C@@H](O)[C@H](O)[C@H](O)CO)CC1)c1ccc(Cl)c(CNC2(c3cnccc3-c3ccccc3OC3CC3)CC2)c1` (stereo partly drawn) [Compound I-320, 1-[1-(5-{4-chloro-3-[({1-[4-(2-cyclopropoxyphenyl)pyridin-3-yl]cyclopropyl}amino)methyl]phenyl}hexanoyl)piperidin-4-yl]-3-[(2S,3R,4R,5R)-2,3,4,5,6-pentahydroxyhexyl]urea] it is less than 100 nM. For `CSc1cnc(CNC2(c3cnccc3-c3ccccc3OC3CC3)CC2)c(C)c1` [Compound I-39, 1-[4-(2-cyclopropoxyphenyl)pyridin-3-yl]-N-{[3-methyl-5-(methylsulfanyl)pyridin-2-yl]methyl}cyclopropan-1-amine], the EC50 was 126 to 1000 nM. The result for `CC(CCCN(CCN1CCNC1=O)C(=O)[C@@H](O)[C@@H](O)[C@H](O)[C@@H](O)CO)c1ccc(Cl)c(CNC2(c3cnccc3-c3ccccc3OC3CC3)CC2)c1` (stereo partly drawn) [Compound I-277, (2S,3S,4R,5S)-N-(4-{4-chloro-3-[({1-[4-(2-cyclopropoxyphenyl)pyridin-3-yl]cyclopropyl}amino)methyl]phenyl}pentyl)-2,3,4,5,6-pentahydroxy-N-[2-(2-oxoimidazolidin-1-yl)ethyl]hexanamide] reads 126 to 1000 nM.
